The values below come from patent US7704990B2, “Agents for preventing and treating disorders involving modulation of the RyR receptors” (The Trustees of Columbia University in the City of New York, priority 2005, dated 2010).

SMILES strings stand for the structures.

One data set addresses T1, RyR1 / calstabin1 (Mus musculus, UniProt E9PZQ0).
T1 construct: increase of calstabin1 in the RyR1 complex in soleus muscles in vivo; from tissue; host or cells: soleus muscle of wild-type and calstabin2-/- mice with post-infarction heart failure
In words: RyR1 PKA phosphorylation and calstabin1 bound to RyR1 in soleus muscle of heart failure mice. The class given is in vivo. The method, then:
Embodiment A are bar graphs of PKA phosphorylation of RyR1 at Ser-2844 in mice, which corresponds to Ser-2843 in humans.
Equivalent amounts of RyR1 were immunoprecipitated with an antibody against RyR1. Embodiment A are bar graphs show the amount of PKA phosphorylation of RyR1 at Ser-2844 in mice (corresponding to human Ser-2843). […] Embodiment B are bar graphs showing the amount of calstabin1 bound to RyR1 from wild-type or calstabin2^−/− mice treated with JTV519 or placebo. Mice were treated with JTV519 by implantable osmotic minipumps using a dose of 0.5 mg/kg/day.

Data set [1] concerns the target T2, RyR1 (Mus musculus, UniProt E9PZQ0).
T2 construct: single channel current trace of RyR1 from soleus muscle of control (wild-type) mouse; from tissue; host or cells: skeletal (soleus) muscle of mdx mice or of wild-type mice with heart failure
In words: Single-channel recordings of RyR1 from soleus muscle of mdx mice. The class given is biochemical. The following applies: 1.0 μM JTV-519, cytoplasmic Ca2+ 150 nM, vs untreated wild-type. The source says: Embodiments A and B are, respectively, a single channel current trace and an amplitude histogram of RyR1 from soleus muscle of a control (wild-type) mouse under resting conditions. Embodiments C and D are, respectively, a single channel current trace and an amplitude histogram of RyR1 from soleus muscle of an mdx mouse.
In FIG. 11, channel openings are represented as upward deflections; ‘c’ indicates the closed state; and 4 pA current open amplitude is indicated by dash. Upper traces represent 5 secs and lower traces 500 ms; dotted lines indicate subconductance states.
Increased Po in mdx mice is consistent with intracellular Ca^2+ leak. The amplitude histograms in embodiments B, D, and F show multiple subconductance states consistent with calstabin1 (FKBP12) depletion in RyR1 from mdx soleus muscle.

The test system of the next data set is soleus muscle. Description: Soleus muscle fatigue time in mice with heart failure from myocardial infarction. The class given is in vivo, mouse. The source says:
Soleus muscles from JTV519-treated wild-type mice or calstabin2^−/− mice with heart failure from myocardial infarction are more resistant to fatigue (P<0.05) compared to placebo-treated mice. After completion of treatment, soleus muscle was dissected and mounted in a tissue bath to assess isolated skeletal muscle function. Representative 50% of maximal tetanic force fatigue time tracings are shown for wild-type and calstabin2^−/− mice, treated with JTV519 or placebo, in embodiment A. In embodiment B are shown bar graph summarizing mean time to fatigue.

For data set [2], the target named is PKA phosphorylated RyR1 / calstabin1 (Homo sapiens, UniProt P21817). Description: Calstabin1 binding to immunoprecipitated PKA phosphorylated skeletal RyR1 at increasing JTV519 concentrations. The source says: Sediment represents only calstabin bound to RyR.
The target of data set [3] is T2, RyR1. In words: RyR1 single-channel tracings from skeletal muscle of heart failure mice treated in vivo. The conditions noted are these: mice with heart failure and increased muscle fatigue, 150 nM cytoplasmic Ca2+. The source says:
Embodiments A and C are single channel current traces of wild-type mice with heart failure treated with placebo (A) and JTV-519 (C). Embodiments B and D are amplitude histograms for wild-type mice with heart failure treated with placebo (B) and JTV-519 (D).
For the amplitude histograms in embodiment B and D, amplitude is represented on the x axis, and events indicates the number of channel openings. Po, To and Tc values correspond to the representative traces. Treatment as indicated on top of traces.

T2 sequence (E9PZQ0 whole entry): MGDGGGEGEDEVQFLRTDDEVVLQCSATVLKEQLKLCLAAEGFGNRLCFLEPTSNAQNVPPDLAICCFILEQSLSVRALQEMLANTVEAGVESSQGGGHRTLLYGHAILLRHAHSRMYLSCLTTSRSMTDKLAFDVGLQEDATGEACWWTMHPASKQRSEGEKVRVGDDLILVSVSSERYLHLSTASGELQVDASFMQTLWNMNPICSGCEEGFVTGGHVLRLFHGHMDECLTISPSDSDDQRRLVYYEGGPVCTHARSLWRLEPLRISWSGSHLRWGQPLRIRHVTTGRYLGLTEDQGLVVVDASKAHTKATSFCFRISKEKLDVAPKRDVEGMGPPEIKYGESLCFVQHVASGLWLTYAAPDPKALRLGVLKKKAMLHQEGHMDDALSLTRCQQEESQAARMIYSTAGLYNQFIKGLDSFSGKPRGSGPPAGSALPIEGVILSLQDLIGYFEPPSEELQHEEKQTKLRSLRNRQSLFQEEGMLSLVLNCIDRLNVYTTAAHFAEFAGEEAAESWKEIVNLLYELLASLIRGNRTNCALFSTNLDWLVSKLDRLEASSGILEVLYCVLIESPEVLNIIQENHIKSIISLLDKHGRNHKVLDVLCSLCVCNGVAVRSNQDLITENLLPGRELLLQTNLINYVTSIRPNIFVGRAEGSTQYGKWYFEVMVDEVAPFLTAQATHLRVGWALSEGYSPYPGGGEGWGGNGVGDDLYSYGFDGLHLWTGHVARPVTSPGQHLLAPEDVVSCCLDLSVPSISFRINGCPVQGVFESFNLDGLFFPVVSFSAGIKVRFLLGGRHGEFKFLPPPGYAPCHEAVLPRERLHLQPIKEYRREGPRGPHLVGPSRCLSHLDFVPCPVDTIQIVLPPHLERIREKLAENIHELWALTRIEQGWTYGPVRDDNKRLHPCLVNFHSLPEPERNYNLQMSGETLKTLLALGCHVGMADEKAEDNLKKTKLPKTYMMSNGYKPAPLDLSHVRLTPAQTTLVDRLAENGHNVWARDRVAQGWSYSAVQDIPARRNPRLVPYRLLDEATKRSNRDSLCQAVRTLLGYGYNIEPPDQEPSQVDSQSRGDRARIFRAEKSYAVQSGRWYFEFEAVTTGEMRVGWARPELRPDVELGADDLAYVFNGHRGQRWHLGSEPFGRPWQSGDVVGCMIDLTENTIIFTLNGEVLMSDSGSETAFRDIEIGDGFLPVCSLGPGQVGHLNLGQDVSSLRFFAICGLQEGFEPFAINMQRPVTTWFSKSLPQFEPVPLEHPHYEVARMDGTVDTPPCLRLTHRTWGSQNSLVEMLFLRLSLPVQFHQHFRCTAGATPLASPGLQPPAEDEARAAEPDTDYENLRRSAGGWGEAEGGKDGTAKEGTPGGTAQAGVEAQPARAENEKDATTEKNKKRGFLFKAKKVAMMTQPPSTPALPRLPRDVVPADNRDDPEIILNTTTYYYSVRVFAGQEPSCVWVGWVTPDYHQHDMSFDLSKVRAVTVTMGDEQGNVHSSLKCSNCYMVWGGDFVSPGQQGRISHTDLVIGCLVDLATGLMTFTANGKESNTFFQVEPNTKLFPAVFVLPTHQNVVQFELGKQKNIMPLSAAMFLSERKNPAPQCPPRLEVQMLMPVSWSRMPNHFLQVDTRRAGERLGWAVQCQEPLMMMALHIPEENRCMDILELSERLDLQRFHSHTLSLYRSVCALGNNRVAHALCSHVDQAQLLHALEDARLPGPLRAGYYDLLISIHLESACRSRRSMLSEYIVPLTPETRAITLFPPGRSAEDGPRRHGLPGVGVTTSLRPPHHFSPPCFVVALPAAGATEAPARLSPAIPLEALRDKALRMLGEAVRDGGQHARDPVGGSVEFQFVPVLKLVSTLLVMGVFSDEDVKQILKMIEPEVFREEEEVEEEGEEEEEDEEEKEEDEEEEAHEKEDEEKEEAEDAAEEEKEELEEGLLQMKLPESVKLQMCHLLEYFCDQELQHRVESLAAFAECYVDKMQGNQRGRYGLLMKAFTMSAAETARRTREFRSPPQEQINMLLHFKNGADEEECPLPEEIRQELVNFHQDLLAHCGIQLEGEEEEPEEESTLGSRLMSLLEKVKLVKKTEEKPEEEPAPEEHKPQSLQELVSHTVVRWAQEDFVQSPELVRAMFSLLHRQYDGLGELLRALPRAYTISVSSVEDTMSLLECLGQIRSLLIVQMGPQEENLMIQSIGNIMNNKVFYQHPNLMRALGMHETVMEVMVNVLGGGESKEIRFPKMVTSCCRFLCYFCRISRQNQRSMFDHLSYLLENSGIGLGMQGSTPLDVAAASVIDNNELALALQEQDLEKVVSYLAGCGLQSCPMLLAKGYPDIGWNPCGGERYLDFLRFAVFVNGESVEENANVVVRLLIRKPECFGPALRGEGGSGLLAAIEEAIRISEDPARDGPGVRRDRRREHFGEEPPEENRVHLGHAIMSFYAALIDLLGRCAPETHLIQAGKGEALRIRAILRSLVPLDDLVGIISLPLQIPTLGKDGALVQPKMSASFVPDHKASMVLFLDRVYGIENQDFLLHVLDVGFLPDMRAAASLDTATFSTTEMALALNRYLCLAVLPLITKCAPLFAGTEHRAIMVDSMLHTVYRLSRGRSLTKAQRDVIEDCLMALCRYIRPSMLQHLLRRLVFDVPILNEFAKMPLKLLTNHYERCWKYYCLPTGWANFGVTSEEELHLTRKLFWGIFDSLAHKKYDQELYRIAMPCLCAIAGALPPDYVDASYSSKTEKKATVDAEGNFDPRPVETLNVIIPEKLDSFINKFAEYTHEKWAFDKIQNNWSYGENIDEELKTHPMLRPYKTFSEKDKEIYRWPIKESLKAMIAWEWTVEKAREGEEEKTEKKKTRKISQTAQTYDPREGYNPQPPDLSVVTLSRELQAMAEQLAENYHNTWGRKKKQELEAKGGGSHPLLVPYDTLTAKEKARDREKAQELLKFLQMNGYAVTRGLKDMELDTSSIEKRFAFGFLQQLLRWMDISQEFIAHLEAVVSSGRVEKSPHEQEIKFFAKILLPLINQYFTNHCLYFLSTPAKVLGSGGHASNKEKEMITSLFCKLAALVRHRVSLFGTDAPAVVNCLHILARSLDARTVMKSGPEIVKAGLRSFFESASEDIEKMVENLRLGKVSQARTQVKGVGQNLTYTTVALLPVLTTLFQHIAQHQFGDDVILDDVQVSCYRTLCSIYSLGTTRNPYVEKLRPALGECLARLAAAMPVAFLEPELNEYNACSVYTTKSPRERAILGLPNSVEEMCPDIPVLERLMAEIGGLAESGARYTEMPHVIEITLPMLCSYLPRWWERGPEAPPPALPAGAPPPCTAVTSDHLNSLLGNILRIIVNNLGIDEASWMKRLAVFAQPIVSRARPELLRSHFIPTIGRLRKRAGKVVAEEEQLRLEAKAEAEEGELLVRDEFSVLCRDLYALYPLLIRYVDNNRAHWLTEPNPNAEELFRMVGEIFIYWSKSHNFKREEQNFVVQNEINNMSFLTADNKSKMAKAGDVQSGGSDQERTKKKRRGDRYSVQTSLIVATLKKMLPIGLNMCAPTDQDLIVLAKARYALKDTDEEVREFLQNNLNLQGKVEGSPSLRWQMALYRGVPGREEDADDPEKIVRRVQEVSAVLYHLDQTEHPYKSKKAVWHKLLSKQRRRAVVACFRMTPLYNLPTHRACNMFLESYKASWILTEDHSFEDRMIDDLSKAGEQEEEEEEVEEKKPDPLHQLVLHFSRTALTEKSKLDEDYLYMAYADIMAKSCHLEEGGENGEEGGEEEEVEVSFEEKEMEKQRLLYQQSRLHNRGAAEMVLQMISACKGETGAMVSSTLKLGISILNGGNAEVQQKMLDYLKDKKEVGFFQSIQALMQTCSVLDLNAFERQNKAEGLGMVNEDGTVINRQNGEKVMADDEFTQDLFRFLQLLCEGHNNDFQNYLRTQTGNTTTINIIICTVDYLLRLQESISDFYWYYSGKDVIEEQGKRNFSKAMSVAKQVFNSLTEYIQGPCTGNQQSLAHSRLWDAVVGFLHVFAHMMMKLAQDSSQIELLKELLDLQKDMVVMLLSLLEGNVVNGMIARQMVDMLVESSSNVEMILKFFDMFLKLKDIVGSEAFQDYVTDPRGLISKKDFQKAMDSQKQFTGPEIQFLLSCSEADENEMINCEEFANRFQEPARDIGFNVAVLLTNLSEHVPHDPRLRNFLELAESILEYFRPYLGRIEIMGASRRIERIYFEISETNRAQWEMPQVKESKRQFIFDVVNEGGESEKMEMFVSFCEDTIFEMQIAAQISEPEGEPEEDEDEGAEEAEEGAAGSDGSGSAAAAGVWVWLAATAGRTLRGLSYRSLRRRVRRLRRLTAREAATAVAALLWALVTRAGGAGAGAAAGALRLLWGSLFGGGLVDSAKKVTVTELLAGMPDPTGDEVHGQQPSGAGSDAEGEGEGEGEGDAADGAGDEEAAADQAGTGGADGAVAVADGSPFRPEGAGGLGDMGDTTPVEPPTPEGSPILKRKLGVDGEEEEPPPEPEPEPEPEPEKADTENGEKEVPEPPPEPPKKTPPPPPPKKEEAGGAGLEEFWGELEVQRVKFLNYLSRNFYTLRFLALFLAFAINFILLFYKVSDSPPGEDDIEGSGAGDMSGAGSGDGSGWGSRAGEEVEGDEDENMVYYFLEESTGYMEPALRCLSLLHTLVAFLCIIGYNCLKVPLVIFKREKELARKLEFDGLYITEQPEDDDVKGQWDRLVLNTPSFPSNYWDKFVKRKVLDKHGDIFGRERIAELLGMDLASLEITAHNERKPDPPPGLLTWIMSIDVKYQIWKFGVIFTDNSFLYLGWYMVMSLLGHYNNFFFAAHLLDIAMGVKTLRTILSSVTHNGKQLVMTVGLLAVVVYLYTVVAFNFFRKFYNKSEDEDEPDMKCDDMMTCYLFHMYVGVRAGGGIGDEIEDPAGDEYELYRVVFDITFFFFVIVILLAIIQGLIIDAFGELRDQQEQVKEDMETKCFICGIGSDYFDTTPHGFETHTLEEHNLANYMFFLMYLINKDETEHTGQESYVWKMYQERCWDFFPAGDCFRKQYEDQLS
T2 sequence (P26883 whole entry partner): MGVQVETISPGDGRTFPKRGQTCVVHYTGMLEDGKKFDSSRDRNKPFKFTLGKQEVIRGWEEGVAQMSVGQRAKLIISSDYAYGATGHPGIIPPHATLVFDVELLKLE

As for `COc1ccc2c(c1)CN(C(=O)CCN1CCC(Cc3ccccc3)CC1)CCS2.Cl` [JTV-519, 4-[3-(4-benzylpiperidin-1-yl)propionyl]-7-methoxy-2,3,4,5-tetrahydro-1,4-benzothiazepine monohydrochloride], the “calstabin1 in the RyR1 complex in soleus muscle” value at RyR1 / calstabin1 (wild-type and calstabin2-/- mice, implantable osmotic minipumps, 0.5 mg/kg/day) is “highly significant increase”. Also, at RyR1 / calstabin1 (wild-type animals), the “RyR1 PKA phosphorylation at Ser-2844” value is listed as “significant decrease”. Also, on RyR1 [1], the RyR1 channel activity result is on record as “normal activity”. In addition, the “resting heart rate or other ECG parameters” value in the data set with FKBP12.6+/- mice (0.5 mg/kg per hour for 7 days, implanted osmotic mini-pump) is given as “no effect”. Also, the “plasma levels that prevent cardiac arrhythmias and sudden cardiac death” value in the data set with FKBP12.6+/- mice (FKBP12.6+/- mice, exercise testing and 0.5 mg/kg epinephrine) worked out at 1 µM. The exercise-induced ventricular arrhythmias result in the data set on FKBP12.6+/- mice (haploinsufficient calstabin (FKBP12.6)+/- mice) is “prevention”. The “soleus muscle fatigue times” value is “significantly improved” with soleus muscle (calstabin2-/- knockout mice with heart failure) and “improved soleus muscle fatigue times” in the data set with soleus muscle (wild-type mice with heart failure, vs placebo). Further, the “binding affinity of calstabin1 for PKA phosphorylated RyR1” value in data set [2] (relative to non-PKA phosphorylated RyR1) is listed as “restored”. Besides, the “concentration that increased the binding affinity of calstabin for RyR” value in data set [2] (skeletal RyR1 with calstabin1, immunoblotting) is listed as at least 50 nM. Besides, the “RyR1 channel gating in skeletal muscle” value at RyR1 [3] is given as “normalized”.
